How the values were obtained:
Assay type in all cases: functional, cell-based
[1] = system: FHC; assay: In vitro inhibition of FHC normal human colon cell proliferation
[2] = system: HT-29; assay: In vitro inhibition of the HT-29 transformed human colon cell proliferation
[3] = system: MDA-MB-231; assay: In vitro inhibition of estrogen receptor negative MDA-MB-231 human breast cancer cell proliferation
[4] = system: MCF7; assay: In vitro inhibition of estrogen receptor positive MCF-7 human breast cancer cell proliferation
[5] = system: HL-60; assay: In vitro inhibition of HL-60 human promyelocytic leukemia cell proliferation

IC50 [2] | IC50 [3] | IC50 [4] | IC50 [5] | SMILES | IC50 [1]
2000 nM | 4500 nM | 3000 nM | 2000 nM | CCCCCCCCCCCCCCCCCCOCC(CCP(=O)([O-])OCC[N+](C)(C)C)n1ccnc1 (configuration not stated) | 5000 nM
 | 6000 nM | 3000 nM | 3000 nM | CCCCCCCCCCCCCCCCCCOCC(CCP(=O)([O-])OCC[N+](C)(C)C)n1cncn1 (configuration not stated) | 
2000 nM | 5000 nM |  | 2000 nM | CCCCCCCCCCCCCCCCCCOCC(COP(=O)([O-])OCC[N+](C)(C)C)OC (configuration not stated) [EDELFOSINE] | 45000 nM

From ChEMBL document CHEMBL1153650, “Imidazole and triazole substituted ether phospholipids: potent antitumor agents” (Bioorg Med Chem Lett, 1997)
